Where two headings read alike, the source gives them in different places.
Experiments:
[1] = tested on: TNF-a suppressed t-PA mRNA in HUVECs; test: TNF-alpha suppression of t-PA mRNA in HUVEC: anti-inflammatory substances versus Givinostat; assay type: cell-based, human; conditions: HUVEC, TNF-a 1 h then substance; ASA 1 mM, IBU 1 mM
Experimental: HUVECs were treated with TNF-alpha (TNF-a) for 1 h and then optimal concentrations of the anti.inflammatory substances acetylsalicylic acid (ASA, 1 mM) and ibuprofen (IBU, 1 mM) was added. Givinostat was also added to the cells for comparison. Cells were harvested and t-PA mRNA levels analysed according to example 1.

[2] = cited from earlier work; for Cmax / Cmax (ng/ml): maximum plasma concentration when the MTD is administered to humans
t-PA mRNA in HUVECs = test: C100: dose giving a 100% increase of t-PA mRNA in HUVEC (24 h); assay type: cell-based, human
Experimental: HUVECs are treated with different concentrations of first generation hydroxamates (TSA), second generation hydroxamates (Givinostat, Vorinostat, Belinostat, Panobinostat, SB939, PCI24781), benzamides (Mocetinostat, Entinostat) or short chain fatty acids (SCFA, Butyrate, Phenylbutyrate) for 24 h and t-PA mRNA was measured. The doses giving a 100% increase of t-PA mRNA (C100) was determined and compared to the maximum plasma concentration (Cmax) achieved when the maximum tolerated dose (MTD) of each substance is administered to humans, by dividing the C100 with the Cmax. […] In the table below the values for MTD and Cmax are from the following references (mentioned in the same order as in the table): Steele, N. L. et al Cancer Chemother Pharmacol 67(6):1273-9 (2011), Kelly, K. K. et al J Clin Oncol 23:3923-3931 (2005), Furlan, A. et al Mol Med 17(5-6) 353-362 (2011), Fukutomi, A. et al Invest New Drugs 2011 Apr. 12, Yong, W. P. et al Ann Oncol 22(11) 2516-22 (2011), Garcia-Manero, G. et al. Blood 112: 981-989 (2008), Ryan, Q. C. et al J Clin Oncol 23(17): 3912-3922 (2005), Edelman, M. J. et al Cancer Chemother Pharmacol 51: 439-444, http://www.drugs.com/pro/buphenyl.html *Butyrate was administered in the prodrug form tributyrin.

[3] = tested on: t-PA mRNA expression in human umbilical vein endothelial cells (HUVECs); test: In vitro dose response: t-PA mRNA (and protein) expression in HUVEC after 24 h; assay type: cell-based
Experimental: Human umbilical vein endothelial cells (HUVECs) were prepared by collagenase treatment of fresh umbilical cords (Jaffe, E. A., et al. J Clin Invest 52, 2745-2756 (1973)) obtained from the maternity ward of the Sahlgrenska University hospital, Gotheburg, Sweden. Cells were cultured in EGM-2 medium (Lonza, Basel, Switzerland) and all experiments were performed in passage 1 of subcultivation. Confluent HUVECs were exposed to 10 nM-10 μM of Vorinostat (Selleck Chemicals, Houston, Tex., USA) in complete medium for 24 h. After 24 h, cells and conditioned media were harvested.
Total RNA was prepared using RNeasy Mini RNA kit (Qiagen, Hilden, Germany) and genomic DNA was removed using RNase-free DNase I set (Qiagen). Levels of t-PA mRNA were analyzed with real-time RT-PCR, performed on an Applied Biosystems 7500 Fast Real-Time PCR System using cDNA and Taqman reagents obtained from Applied Biosystems (Foster City, Calif., USA). Hypoxanthine phosphoribosyl transferase (HPRT, Assay number Hs99999909_m1, Applied Biosystems) was used as endogenous internal standard.
Endothelial cells in culture are known to constitutively secrete the majority of synthesized t-PA making conditioned media a suitable source for quantification of t-PA protein. Conditioned medium from cell cultures was collected, centrifuged (10 000×g, 10 min, 4° C.) to remove cell debris, transferred to fresh tubes and stored at −70° C. Concentrations of t-PA antigen in conditioned media were determined using the commercially available TriniLize t-PA antigen ELISA (Trinity Biotech, Bray, Ireland) according to manufacturer's protocol.

[4] = tested on: t-PA production in endothelial cells; conditions: Arts et al 1995; cited from earlier work

CC(=O)Oc1ccccc1C(=O)O [ASA, acetylsalicylic acid]
effect on TNF-a mediated suppression of t-PA expression [1]: not counteracted

CCCC(=O)O [Butyrate]
MTD ([2]; humans, literature, butyrate administered in the prodrug form tributyrin): 200 mg/kg t.i.d | Cmax ([2]; butyrate as prodrug tributyrin): 100 µM | C100 tPA (μM) (t-PA mRNA in HUVECs): 100 µM

Nc1ccccc1NC(=O)c1ccc(CNC(=O)OCc2cccnc2)cc1 [Entinostat]
Cmax [2]: 0.12 µM | Cmax (ng/ml) [2]: 45 ng/mL | C100 tPA (t-PA mRNA in HUVECs): 0.3 µM

CC(C)Cc1ccc(C(C)C(=O)O)cc1 (centres unmarked) [IBU, ibuprofen]
effect on TNF-a mediated suppression of t-PA expression [1]: not counteracted

CCCCc1nc2cc(/C=C/C(=O)NO)ccc2n1CCN(CC)CC [SB939, (2E)-3-{2-butyl-1-[2-(diethylamino)ethyl]-1H-benzimidazol-5-yl}-N-hydroxyacrylamide]
concentration at which a significant increase of t-PA mRNA levels was seen [3]: 30 nM | concentration of maximal effect on t-PA expression [3]: around 1 μM | increase of t-PA expression at maximal effect [3]: approximately 10 times | MTD ([2]; humans, literature): 80 mg | Cmax [2]: 1.1 µM | Cmax (ng/ml) [2]: ~400 ng/mL | MTD ([2]; once daily, oncology treatment or trials): 60 mg once daily | C100 tPA (t-PA mRNA in HUVECs): 0.05 µM

CC(/C=C/C(=O)NO)=C\[C@@H](C)C(=O)c1ccc(N(C)C)cc1 [Trichostatin A, trichostatin A]
t-PA production in endothelial cells [4]: increased

CC(=O)Oc1ccccc1C(=O)O [aspirin]
effect on TNF-a mediated suppression of t-PA expression [1]: unable to reverse

CC(C)Cc1ccc(C(C)C(=O)O)cc1 (centres unmarked) [ibuprofen]
effect on TNF-a mediated suppression of t-PA expression [1]: unable to reverse

Phenylbutyrate
MTD ([2]; humans, literature): 5000 mg | Cmax ([2]; butyrate as prodrug tributyrin): 1100 µM | Cmax (ng/ml) [2]: 218 000 ng/ml | C100 tPA (μM) (t-PA mRNA in HUVECs): 1300 µM
